The values that follow are results of earlier work, collected in patent US10905651B1, “Zeinmersome nanocarriers for drug delivery to the liver” (King Abdulaziz University, priority 2020, dated 2021).

For the data set the following is noted: cited from earlier work.

Molecules are shown by their SMILES.

In the case of `CCCc1nc(C(C)(C)O)c(C(=O)O)n1Cc1ccc(-c2ccccc2-c2nnn[nH]2)cc1` [olmesartan], the “oral bioavailability of olmesartan” value (Kobayashi et al. 2000) is 4.5%. The “volume of distribution (Vd)” value (following IV administration) was 15 to 25 L.
